Measurements taken from patent US20140011799A1 (Bristol-Myers Squibb Company, priority 2012, published 2014).
pIC50: −log10 of the molar value.

Key:
Endothelial lipase (EL) = molecular target: T1, Endothelial lipase (EL) (Homo sapiens, UniProt Q9Y5X9); test: Endothelial lipase (EL) enzymatic assay, fluorescent substrate A10070 in DMPG vesicles; assay type: biochemical; details: EL from conditioned media of HT-1080 cells; compound preincubated 30 min at 37° C; read-out: EL IC50
T1 construct: HT-1080 cells that were transformed using RAGE technology (Athersys) to overexpress endogenous EL; endogenous in cells; conditioned medium used
T1 sequence (Q9Y5X9 21-500): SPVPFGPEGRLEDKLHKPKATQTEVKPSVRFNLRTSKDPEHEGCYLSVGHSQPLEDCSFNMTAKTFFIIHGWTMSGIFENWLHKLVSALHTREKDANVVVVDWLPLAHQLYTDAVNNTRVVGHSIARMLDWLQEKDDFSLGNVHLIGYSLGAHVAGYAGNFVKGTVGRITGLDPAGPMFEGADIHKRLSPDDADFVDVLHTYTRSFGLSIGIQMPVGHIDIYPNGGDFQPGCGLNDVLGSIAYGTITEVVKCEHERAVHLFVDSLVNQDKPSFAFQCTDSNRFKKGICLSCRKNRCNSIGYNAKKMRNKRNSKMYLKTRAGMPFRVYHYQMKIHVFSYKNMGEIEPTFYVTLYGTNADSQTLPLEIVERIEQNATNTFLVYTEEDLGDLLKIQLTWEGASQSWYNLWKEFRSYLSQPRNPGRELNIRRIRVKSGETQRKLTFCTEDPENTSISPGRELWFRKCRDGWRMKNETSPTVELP
In short: (§1)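 Compounds were preincubated with enzyme for 30 min at 37° C before FRET-substrate vesicles (A10070 in DMPG, 0.11 mole fraction) were added. Reaction rates were obtained from the 300–900 sec slope of fluorescence at 490/530 nm.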

hepatic lipase (HL) = molecular target: T2, hepatic lipase (HL) (Homo sapiens, UniProt P11150); test: Hepatic lipase (HL) enzymatic assay, fluorescent substrate A10070 in DMPG vesicles; assay type: biochemical; details: HL partially purified from conditioned media of COS cells; compound preincubated 30 min at 37° C; read-out: HL IC50
T2 construct: made in house; host or cells: COS cells (conditioned medium, partially purified)
T2 sequence (P11150 23-499): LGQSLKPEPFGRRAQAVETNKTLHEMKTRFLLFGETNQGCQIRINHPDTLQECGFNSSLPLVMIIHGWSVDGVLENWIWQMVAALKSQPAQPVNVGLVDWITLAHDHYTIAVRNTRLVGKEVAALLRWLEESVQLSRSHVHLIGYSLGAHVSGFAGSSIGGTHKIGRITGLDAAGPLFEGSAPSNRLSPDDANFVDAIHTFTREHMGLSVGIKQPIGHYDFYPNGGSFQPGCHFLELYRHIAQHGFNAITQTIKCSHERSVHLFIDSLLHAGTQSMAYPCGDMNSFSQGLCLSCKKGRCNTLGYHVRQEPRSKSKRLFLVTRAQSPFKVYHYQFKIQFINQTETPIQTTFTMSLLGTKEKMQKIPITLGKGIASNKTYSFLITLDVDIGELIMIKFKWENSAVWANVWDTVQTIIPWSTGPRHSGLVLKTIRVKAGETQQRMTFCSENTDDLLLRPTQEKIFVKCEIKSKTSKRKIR
In short: as §1

SMILES: COCCS(=O)(=O)C(c1nnc(CNS(N)(=O)=O)o1)c1nc2ccc(-c3cc(F)cc(Cl)c3)cc2s1 (stereo not drawn) [Example 151, N-((5-((6-(3-chloro-5-fluorophenyl)-1,3-benzothiazol-2-yl)((2-methoxyethyl)sulfonyl)methyl)-1,3,4-oxadiazol-2-yl)methyl)sulfamide]
- pIC50 (Endothelial lipase (EL)): > 8.00
- pIC50 (hepatic lipase (HL)): > 8.00

SMILES: CC(C)(C)OC(=O)NS(=O)(=O)NCc1nnc(C(c2nc3ccc(-c4cc(F)cc(Cl)c4)cc3s2)S(=O)(=O)Cc2ccccc2)o1 (stereo not drawn) [Example 142, tert-butyl (((5-((benzylsulfonyl)(6-(3-chloro-5-fluorophenyl)-1,3-benzothiazol-2-yl)methyl)-1,3,4-oxadiazol-2-yl)methyl)sulfamoyl)carbamate]
- pIC50 (Endothelial lipase (EL)): > 8.00
- pIC50 (hepatic lipase (HL)): > 8.00

SMILES: CC(C)(C)OC(=O)NS(=O)(=O)NCc1nnc(C(c2nc3ccc(-c4cncnc4)cc3s2)S(=O)(=O)Cc2ccccc2)o1 (stereo not drawn) [Example 121, tert-butyl (((5-((benzylsulfonyl)(6-(5-pyrimidinyl)-1,3-benzothiazol-2-yl)methyl)-1,3,4-oxadiazol-2-yl)methyl)sulfamoyl)carbamate]
- pIC50 (Endothelial lipase (EL)): 6.83
- pIC50 (hepatic lipase (HL)): 5.18

SMILES: CC(C)(C)OC(=O)Cc1nnc(C(c2nc3ccc(-c4ccc(C(=O)N5CCOCC5)cc4)cc3s2)S(C)(=O)=O)o1 (stereo not drawn) [Example 107, tert-butyl (5-((methylsulfonyl)(6-(4-(4-morpholinylcarbonyl)phenyl)-1,3-benzothiazol-2-yl)methyl)-1,3,4-oxadiazol-2-yl)acetate]
- pIC50 (Endothelial lipase (EL)): 7.55
- pIC50 (hepatic lipase (HL)): 7.89

SMILES: CS(=O)(=O)C(c1nnc(CNS(N)(=O)=O)o1)c1nc2ccc(-c3cccc(C(=O)Nc4nncs4)c3)cc2s1 (stereo not drawn) [Example 256, 3-{2-[methanesulfonyl({5-[(sulfamoylamino)methyl]-1,3,4-oxadiazol-2-yl})methyl]-1,3-benzothiazol-6-yl}-N-(1,3,4-thiadiazol-2-yl)benzamide]
- pIC50 (Endothelial lipase (EL)): 8.70
- pIC50 (hepatic lipase (HL)): 7.80

SMILES: COC(=O)CCS(=O)(=O)C(c1nnc(CC2SC(=O)NC2=O)o1)c1nc2cc(F)c(-c3ccccc3)cc2s1 (stereo not drawn) [Example 161, methyl 3-(((5-((2,4-dioxo-1,3-thiazolidin-5-yl)methyl)-1,3,4-oxadiazol-2-yl)(5-fluoro-6-phenyl-1,3-benzothiazol-2-yl)methyl)sulfonyl)propanoate]
- pIC50 (Endothelial lipase (EL)): > 8.00
- pIC50 (hepatic lipase (HL)): > 8.00

SMILES: C=CCS(=O)(=O)C(c1nnc(CNS(N)(=O)=O)o1)c1nc2ccc(-c3ccc(C(=O)N4CCOCC4)cc3)cc2s1 (stereo not drawn) [Example 150, N-((5-((allylsulfonyl)(6-(4-(4-morpholinylcarbonyl)phenyl)-1,3-benzothiazol-2-yl)methyl)-1,3,4-oxadiazol-2-yl)methyl)sulfamide]
- pIC50 (Endothelial lipase (EL)): > 8.00
- pIC50 (hepatic lipase (HL)): 6.25

SMILES: COCc1ccc(-c2ccc3nc(C(c4nnc(CNS(N)(=O)=O)o4)S(=O)(=O)Cc4ccc(F)cc4)sc3c2)cc1 (stereo not drawn) [Example 242, N-({5-[(4-fluorophenyl)methanesulfonyl ({6-[4-(methoxymethyl)phenyl]-1,3-benzothiazol-2-yl})methyl]-1,3,4-oxadiazol-2-yl}methyl) aminosulfonamide]
- pIC50 (Endothelial lipase (EL)): 9.00
- pIC50 (hepatic lipase (HL)): 9.00

SMILES: O=C1NC(=O)C(Cc2nnc(C(c3nc4ccc(-c5ccc(C(=O)N6CCOCC6)cc5)cc4s3)S(=O)(=O)CCN3CCOCC3)o2)S1 (stereo not drawn) [Example 106, 5-((5-((6-(4-(4-morpholinylcarbonyl)phenyl)-1,3-benzothiazol-2-yl)((2-(4-morpholinyl)ethyl)sulfonyl)methyl)-1,3,4-oxadiazol-2-yl)methyl)-1,3-thiazolidine-2,4-dione]
- pIC50 (Endothelial lipase (EL)): > 8.00
- pIC50 (hepatic lipase (HL)): 5.87

SMILES: NS(=O)(=O)NCc1nnc(C(c2nc3ccc(Br)cc3s2)S(=O)(=O)Cc2ccccc2)o1 (stereo not drawn) [Example 124, N-((5-((benzylsulfonyl)(6-bromo-1,3-benzothiazol-2-yl)methyl)-1,3,4-oxadiazol-2-yl)methyl)sulfamide]
- pIC50 (Endothelial lipase (EL)): 7.32
- pIC50 (hepatic lipase (HL)): 7.43

SMILES: COCCS(=O)(=O)C(c1nnc(CNS(N)(=O)=O)o1)c1nc2ccc(-c3ccccc3)cc2s1 (stereo not drawn) [Example 119, N-[(5-{[(2-methoxyethyl)sulfonyl](6-phenyl-1,3-benzothiazol-2-yl)methyl}-1,3,4-oxadiazol-2-yl)methyl]sulfuric diamide]
- pIC50 (Endothelial lipase (EL)): > 8.00
- pIC50 (hepatic lipase (HL)): > 8.00

SMILES: CS(=O)(=O)C(c1nnc(CC2SC(=O)NC2=O)o1)c1nc2ccc(-c3cnc(O)nc3)cc2s1 (stereo not drawn) [Example 182, 5-((5-((Methylsulfonyl)(6-(2-oxo-1,2-dihydro-5-pyrimidinyl)-1,3-benzothiazol-2-yl)methyl)-1,3,4-oxadiazol-2-yl)methyl)-1,3-thiazolidine-2,4-dione]
- pIC50 (Endothelial lipase (EL)): > 8.00
- pIC50 (hepatic lipase (HL)): 7.08

SMILES: COCCS(=O)(=O)C(c1nnc(CNS(=O)(=O)NC(=O)OC(C)(C)C)o1)c1nc2ccc(-c3cc(F)cc(Cl)c3)cc2s1 (stereo not drawn) [Example 153, tert-butyl (((5-((6-(3-chloro-5-fluorophenyl)-1,3-benzothiazol-2-yl)((2-methoxyethyl)sulfonyl)methyl)-1,3,4-oxadiazol-2-yl)methyl)sulfamoyl) carbamate]
- pIC50 (Endothelial lipase (EL)): 7.72
- pIC50 (hepatic lipase (HL)): 7.77

SMILES: CS(=O)(=O)NCc1nnc(C(c2nc3ccc(-c4ccc(F)nc4)cc3s2)S(C)(=O)=O)o1 (stereo not drawn) [Example 172, N-((5-((6-(6-Fluoro-3-pyridinyl)-1,3-benzothiazol-2-yl)(methylsulfonyl)methyl)-1,3,4-oxadiazol-2-yl)methyl)methanesulfonamide]
- pIC50 (Endothelial lipase (EL)): 6.62
- pIC50 (hepatic lipase (HL)): 7.49

SMILES: CN(C)C(=O)O[C@H](C(=O)NCc1nnc(C(c2nc3ccc(-c4ccccc4)cc3s2)S(C)(=O)=O)o1)C(C)(C)C (stereo partly drawn) [Example 156, (1S)-2,2-dimethyl-1-(((5-((methylsulfonyl)(6-phenyl-1,3-benzothiazol-2-yl)methyl)-1,3,4-oxadiazol-2-yl)methyl)carbamoyl) propyl dimethylcarbamate]
- pIC50 (Endothelial lipase (EL)): 7.24
- pIC50 (hepatic lipase (HL)): 7.15

SMILES: Cc1nc(C)c(-c2ccc3nc(C(c4nnc(CC5SC(=O)NC5=O)o4)S(C)(=O)=O)sc3c2)s1 (stereo not drawn) [Example 102, 5-((5-((6-(2,4-dimethyl-1,3-thiazol-5-yl)-1,3-benzothiazol-2-yl)(methylsulfonyl)methyl)-1,3,4-oxadiazol-2-yl)methyl)-1,3-thiazolidine-2,4-dione]
- pIC50 (Endothelial lipase (EL)): > 8.00
- pIC50 (hepatic lipase (HL)): > 8.00

SMILES: COCCNC(=O)c1cccc(-c2ccc3nc(C(c4nnc(CNS(N)(=O)=O)o4)S(=O)(=O)CCC(F)(F)F)sc3c2)c1 (stereo not drawn) [Example 199, N-(2-methoxyethyl)-3-(2-((5-((sulfamoylamino)methyl)-1,3,4-oxadiazol-2-yl)((3,3,3-trifluoropropyl)sulfonyl)methyl)-1,3-benzothiazol-6-yl)benzamide]
- pIC50 (Endothelial lipase (EL)): > 8.00
- pIC50 (hepatic lipase (HL)): 5.99

SMILES: CC(O)CCNC(=O)Cc1nnc(C(c2nc3ccc(-c4ccc(C(=O)N5CCOCC5)cc4)cc3s2)S(=O)(=O)Cc2ccccc2)o1 (stereo not drawn) [Example 177, 2-(5-((benzylsulfonyl)(6-(4-(4-morpholinylcarbonyl)phenyl)-1,3-benzothiazol-2-yl)methyl)-1,3,4-oxadiazol-2-yl)-N-(3-hydroxybutyl) acetamide]
- pIC50 (Endothelial lipase (EL)): 7.85
- pIC50 (hepatic lipase (HL)): 6.23

SMILES: O=C(Cc1nnc(C(c2nc3ccc(-c4ccc(C(=O)N5CCOCC5)cc4)cc3s2)S(=O)(=O)Cc2ccccc2)o1)NC1CCCC1 (stereo not drawn) [Example 180, 2-(5-((benzylsulfonyl)(6-(4-(4-morpholinylcarbonyl)phenyl)-1,3-benzothiazol-2-yl)methyl)-1,3,4-oxadiazol-2-yl)-N-cyclopentylacetamide]
- pIC50 (Endothelial lipase (EL)): > 8.00
- pIC50 (hepatic lipase (HL)): 7.36

SMILES: NS(=O)(=O)NCc1nnc(C(c2nc3ccc(-c4ccc(F)nc4)cc3s2)S(=O)(=O)Cc2ccc(OC(F)(F)F)cc2)o1 (stereo not drawn) [Example 239, N-[(5-{[6-(6-fluoropyridin-3-yl)-1,3-benzothiazol-2-yl] [4-(trifluoromethoxy)phenyl]methanesulfonylmethyl}-1,3,4-oxadiazol-2-yl)methyl] aminosulfonamide]
- pIC50 (Endothelial lipase (EL)): 8.40
- pIC50 (hepatic lipase (HL)): 8.05

SMILES: CS(=O)(=O)C(c1nnc(C[C@@H]2NS(=O)(=O)N(C3CC3)C2=O)o1)c1nc2ccc(-c3ccccc3)cc2s1 (stereo partly drawn) [Example 181]
- pIC50 (Endothelial lipase (EL)): 6.89
- pIC50 (hepatic lipase (HL)): 7.25
